This is an account of results in US20110172416A1, “AMIDINE DERIVATIVE” (Ajinomoto Co., Inc., priority 2008, published 2011).

In one data set the target is FXa (Homo sapiens, UniProt P00742). Put plainly: Measurement of activated factor X activity-inhibitory activity (chromogenic substrate S-2222). As to conditions: negative logarithmic value of concentration suppressing reaction rate of control to 50%. In kind it is biochemical. The method, then: (§1) Using a 96 well plate (#3396, Costar), Tris-HCl buffer (100 mM, 130 μL) containing 0.02% Tween 20, 0.1% PEG6000 and 0.2 M NaCl was blended with FXa (0.015 U/ml, 10 μL) and a test compound (10 μL) for 10 min, and a chromogenic substrate (0.2 mM, S-2222, 50 μL) was added. Using microplate reader Benchmark Plus (BIO-RAD), the reaction rate was measured from the time course changes in the absorbance at 405 nm. The reaction rate of the control was taken as 100%, and a negative logarithmic value of a concentration at which the reaction rate of the control could be suppressed to 50% was taken as the pIC50 value. The results are shown by pIC50 (FXa) in Table 2.

Data set [1] concerns the target activated factor IIa (thrombin) (Homo sapiens, UniProt P00734). Put plainly: Measurement of activated factor II (FIIa, thrombin)-inhibitory activity (chromogenic substrate S-2238). It is filed as biochemical. Conditions: negative logarithmic value of concentration suppressing reaction rate of control to 50%. The method, then:
as §1, with “activated factor IIa (thrombin, 0.125 U/mL,” for “FXa (0.015 U/ml,”, “(0.1” for “(0.2”, “S-2238,” for “S-2222,”, “of” for “in the”, “(IIa)” for “(FXa)”

The next data set relates to human plasma. Put plainly: Measurement of anti-blood coagulant activity (aPTT measurement method). It is filed as biochemical. As to conditions: negative logarithmic value of concentration at which aPTT of the control was double-extended. As to the method: The test was performed according to an aPTT measurement method using a fully-automated blood coagulation time measuring apparatus Sysmex CA-1500. In a sample tube (MS-18, Japan Medical Science) were placed DDVP solution (10 mg/ml, DDVP standard product, Wako Corporation, 4 μL), a solution (20 μL) of a test compound, and human plasma (human plasma for blood coagulation test, GCH-100A, Sysmex Corporation, 180 μL) and this was used as a test sample. The test sample (50 μL) was incubated at 37° C. for 1 min, APTT (cephalin derived from rabbit brain, DADE Behiring, 50 μL) was added, and the mixture was further incubated at 37° C. for 2 min. To the sample solution was added calcium chloride (0.02 M, 50 μL), and the time before coagulation of the plasma was automatically measured.
The anti-blood coagulation activity was shown by the negative logarithmic value of a concentration at which aPTT of the control was double-extended as paPTT2.

Data set [2] can be described thus: Evaluation of stability in plasma. As to conditions: human plasma, 37° C., calculated from quantitative lower limit at 2 min when below quantification limit. It is filed as in vitro ADME. The method, then: To human plasma (495 μL) was added a solution (5 μL) of the test compound prepared to 100 μg/mL (final drug solution concentration 1 μg/mL), and the mixture was incubated at 37° C. At 0 min, 2 min, 5 min, 10 min, 30 min and 60 min after the addition of the drug solution, 50 μL each was sampled. Acetonitrile (100 μL) was added and the mixture was admixed to discontinue the reaction. After discontinuation of the reaction, a protein elimination treatment was performed by centrifugation (15000 rpm, 5 min). The centrifugation supernatant (20 μL) was diluted with ammonium formate solution (100 mmol/L, pH 4, 180 μL), and subjected to the measurement by LC/MS/MS.
When the value at 2 min after the addition of the drug solution was less than the quantification limit, the half-life was calculated by the following method.
That is, the value at 0 min was taken as the theoretical concentration (1000 ng/mL) and the value at 2 min was taken as the quantitative lower limit concentration. The half-life (T1/2) was calculated from the inclination of the straight line connecting the logarithmic conversion values at the two points.

A word on the IC50: it is the concentration that inhibits the measured activity by half. The term half-life denotes how long it takes for the measured level to halve.

Sequence of FXa (P00742 235-488 limits assumed): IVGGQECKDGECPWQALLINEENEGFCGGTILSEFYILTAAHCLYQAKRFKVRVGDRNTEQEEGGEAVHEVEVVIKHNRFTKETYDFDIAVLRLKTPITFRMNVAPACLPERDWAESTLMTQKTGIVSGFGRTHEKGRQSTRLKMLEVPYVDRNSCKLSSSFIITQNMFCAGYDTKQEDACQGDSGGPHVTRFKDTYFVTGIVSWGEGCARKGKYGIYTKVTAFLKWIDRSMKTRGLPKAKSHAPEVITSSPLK
Sequence of FXa (P00742 41-179 partner limits assumed): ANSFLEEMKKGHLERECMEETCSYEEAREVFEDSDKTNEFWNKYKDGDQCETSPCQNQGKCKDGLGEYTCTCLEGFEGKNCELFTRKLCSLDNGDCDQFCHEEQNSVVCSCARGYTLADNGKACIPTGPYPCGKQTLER

Turning to `N=C(N)N1CCc2ccc(C(=O)OCC3CCN(c4ccncc4)CC3)cc2C1` [compound of Ex. 2, [1-(pyridin-4-yl)piperidin-4-yl]methyl 2-[amino(imino)methyl]-1,2,3,4-tetrahydroisoquinoline-7-carboxylate ditrifluoroacetate], the half-maximal inhibitory concentration (IC50) is 398 nM against FXa and over 100 µM in data set [1]. In the data set with human plasma, the paPTT2 amounted to 5.4. Moreover, the half-life at 1 μg/mL in data set [2] was under 0.395 min.
In the same order, the values of `N=C(N)N1CCc2ccc(COC(=O)C3CCN(c4ccncc4)CC3)cc2C1` [compound of Ex. 3, {2-[amino(imino)methyl]-1,2,3,4-tetrahydroisoquinolin-7-yl}methyl 1-(pyridin-4-yl)piperidine-4-carboxylate ditrifluoroacetate] are 79.4 nM, 63.1 µM, 6.1 and under 0.398 min.
Take `N=C(N)N1CCc2ccc(OC(=O)C3(COCc4ccccc4)CCN(c4ccncc4)CC3)cc2C1` [compound of Ex. 5, 2-[amino(imino)methyl]-1,2,3,4-tetrahydroisoquinolin-7-yl 4-[(benzyloxy)methyl]-1-(pyridin-4-yl)piperidine-4-carboxylate ditrifluoroacetate]: the figures for the IC50 (against FXa; in data set [1]) were 501 nM and 20 µM, respectively. The molecule further had a paPTT2 in the data set with human plasma of 5.4.
In the same order, the values of `COCC1(C(=O)Oc2ccc3c(c2)CN(C(=N)N)CC3)CCN(c2ccncc2)CC1` [compound of Ex. 6, 2-[amino(imino)methyl]-1,2,3,4-tetrahydroisoquinolin-7-yl 4-methoxymethyl-1-(pyridin-4-yl)piperidine-4-carboxylate ditrifluoroacetate] are 1580 nM, 39.8 µM and 5.4.
As for `N=C(N)N1Cc2ccc(C(=O)OCC3CCN(c4ccncc4)CC3)cc2C1` [compound of Ex. 7, [1-(pyridin-4-yl)piperidin-4-yl]methyl 2-[amino(imino)methyl]isoindoline-5-carboxylate ditrifluoroacetate], the half-inhibitory concentration (IC50) against FXa was 7940 nM; in data set [1], over 100 µM. In addition, the paPTT2 with human plasma was 4.6.
Taken in the same sequence, the figures for `N=C(N)N1Cc2ccc(COC(=O)C3CCN(c4ccncc4)CC3)cc2C1` [compound of Ex. 8, {2-[amino(imino)methyl]-isoindolin-5-yl}methyl 1-(pyridin-4-yl)piperidine-4-carboxylate ditrifluoroacetate] were 3160 nM, over 100 µM and under 5.
Take `CC(=N)N1CCC(Oc2ccc(COC(=O)c3ccc4c(c3)CN(C(=N)N)CC4)cc2)CC1` [compound of Ex. 15, 4-{[1-(1-iminoethyl)piperidin-4-yl]oxy}benzyl 2-[amino(imino)methyl]-1,2,3,4-tetrahydroisoquinoline-7-carboxylate ditrifluoroacetate]: the IC50 against FXa is 10000 nM; in data set [1], over 100 µM. Also, in the data set with human plasma, the paPTT2 was determined as 4.4.
Taken in the same sequence, the figures for `CC(=N)N1CCC(Oc2ccc(C(=O)OCc3ccc4c(c3)CN(C(=N)N)CC4)cc2)CC1` [compound of Ex. 16, {2-[amino(imino)methyl]-1,2,3,4-tetrahydroisoquinolin-7-yl}methyl 4-{([1-(1-iminoethyl)piperidin-4-yl]oxy}benzoate ditrifluoroacetate] were 5010 nM, over 100 µM and 4.5.
